Experimental findings from patent US11548900B2, “Oxazino-quinazoline and oxazino-quinoline type compound, preparation method and uses thereof” (BEIJING SCITECH-MQ PHARMACEUTICALS LIMITED, priority 2018, dated 2023) are described below.

By IC50 is commonly meant the point on the concentration scale where inhibition reaches its midpoint. High values mean lower potency, low ones higher potency.

HER2 kinase, sequence (P04626 23-1255): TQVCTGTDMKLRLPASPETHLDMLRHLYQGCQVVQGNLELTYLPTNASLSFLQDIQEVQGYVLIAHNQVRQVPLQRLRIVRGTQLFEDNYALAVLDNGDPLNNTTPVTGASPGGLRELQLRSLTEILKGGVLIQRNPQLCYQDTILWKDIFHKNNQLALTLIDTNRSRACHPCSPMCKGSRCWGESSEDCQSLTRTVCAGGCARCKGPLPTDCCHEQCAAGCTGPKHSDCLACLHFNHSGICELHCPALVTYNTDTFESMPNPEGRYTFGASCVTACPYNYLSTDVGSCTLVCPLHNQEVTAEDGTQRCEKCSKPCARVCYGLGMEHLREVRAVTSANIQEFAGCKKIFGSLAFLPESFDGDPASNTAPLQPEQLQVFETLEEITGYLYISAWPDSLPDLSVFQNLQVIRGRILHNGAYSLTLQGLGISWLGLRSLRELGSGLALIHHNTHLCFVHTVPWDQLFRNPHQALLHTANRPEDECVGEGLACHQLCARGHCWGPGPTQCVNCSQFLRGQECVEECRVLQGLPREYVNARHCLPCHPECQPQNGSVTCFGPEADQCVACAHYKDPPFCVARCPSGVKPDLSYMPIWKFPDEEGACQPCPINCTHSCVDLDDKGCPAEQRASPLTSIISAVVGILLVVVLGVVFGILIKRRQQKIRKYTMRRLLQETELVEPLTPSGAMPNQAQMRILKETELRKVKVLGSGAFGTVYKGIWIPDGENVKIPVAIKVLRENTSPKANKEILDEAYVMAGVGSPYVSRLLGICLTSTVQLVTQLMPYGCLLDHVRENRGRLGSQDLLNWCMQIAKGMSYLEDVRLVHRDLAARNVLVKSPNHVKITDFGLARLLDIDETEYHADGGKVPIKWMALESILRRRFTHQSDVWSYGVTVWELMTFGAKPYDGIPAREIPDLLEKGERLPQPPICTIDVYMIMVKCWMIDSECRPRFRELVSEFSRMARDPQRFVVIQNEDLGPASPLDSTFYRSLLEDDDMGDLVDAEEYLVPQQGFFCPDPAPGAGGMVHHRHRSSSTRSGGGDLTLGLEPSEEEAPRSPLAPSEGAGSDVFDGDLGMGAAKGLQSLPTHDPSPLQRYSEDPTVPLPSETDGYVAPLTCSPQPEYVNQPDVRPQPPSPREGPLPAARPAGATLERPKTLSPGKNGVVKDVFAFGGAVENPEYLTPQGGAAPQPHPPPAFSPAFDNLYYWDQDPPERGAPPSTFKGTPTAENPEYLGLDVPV

This assay concerns the target HER2 kinase (Homo sapiens (Human), UniProt P04626). As to the kind of experiment: Inhibition of HER2 kinase activity (ULight-labeled PolyGT substrate). Type of assay: biochemical. The conditions noted are these: HER2 kinase 10 nM, ATP 10 μM, 2 hours. The method, then:
The assay for the inhibition of EGFR and HER2 kinase activity by small molecular compounds was carried out using the method as follows:
1) Dilution of the compounds
In a 96-well plate a, the compounds were diluted with DMSO using a 3-fold gradient dilution to form 11 concentrations, the 12th concentration is pure DMSO (as a positive control); and in a new 96-well plate b the above solutions were diluted 25 times with ultrapure water (DMSO concentration is 4%).
2) Transferring the compounds to 384-well plate
The compound solutions diluted with ultrapure water in the 96-well plate b above was transferred to the corresponding wells of a 384-well plate in duplicate.
3) Addition of 4×kinase solution: 2.5 μl of the above 4× kinase solution was taken using multichannel pipette and added to the corresponding reaction wells of the 384-well plate, mixed well and pre-reacted at room temperature for 5 minutes.
4) Addition of 2×substrate/ATP mixed solution: 5 μl of the above 2×substrate/ATP mixed solution was taken using multichannel pipette and added to the corresponding reaction wells of the 384-well plate.
5) Negative control: negative control wells were set in the 384-well plate, and 2.5 μl 4×substrate, 2.5 μl 4×enzyme solution, 2.5 μl 1×Kinase Assay Buffer and 2.5 μl ultrapure water containing 4% DMSO were added to each well.
6) Mixed by centrifugation and kept at room temperature for 2 hours in the dark.
7) Termination of the enzymatic reaction:
5 μl of the above 4× stop solution was pipetted to the corresponding wells of the 384-well plate, centrifuged and mixed, and reacted at room temperature for 5 minutes.
5 μl of the above 4× detection solution was pipetted into the corresponding wells of the 384-well plate, centrifuged and mixed, and reacted at room temperature for 1 hour.
9) The 384-well plate was placed into a microplate reader and the signal was detected using the corresponding program.
10) IC50 analysis: Well reading value=10000*EU665 value/EU615 value Inhibition rate=(reading value of positive control well−reading value of experimental well)/(reading value of positive control well−reading value of negative control well)*100% Corresponding IC50s can be calculated by entering the drug concentrations and the corresponding inhibition rates into GraphPad Prism 5.
Conditions of experiment for screening HER2 kinase inhibitory molecules:
The final concentration of HER2 kinase in the reaction system is 10 nM, the final concentration of ATP is 10 μM, the final concentration of substrate ULight™-labeled PolyGT is 100 nM, and the enzymatic reaction time is 2 hours.
The maximum final concentration of the compound in the reaction system is 2.5 μM, 11 concentrations were made with a 3-fold gradient dilution, and the minimal final concentration is 0.042 nM. The final concentration of DMSO is 1%.
`C=CC(=O)N1CCOc2c1ccc1ncnc(Nc3ccc(Oc4cccc(C(F)(F)F)c4)cc3)c21` [Example 1, 1-(10-((4-(3-(trifluoromethyl)phenoxy)phenyl)amino)-2,3-dihydro-4H-[1,4]oxazino[2,3-f]quinazolin-4-yl)prop-2-en-1-one] returned an IC50 of at most 0.05 µM.
For `C=CC(=O)N1CCOc2c1ccc1ncnc(Nc3ccc(Oc4cccc(C)c4)cc3)c21` [Example 5, 1-(10-((4-(m-tolyloxy)phenyl)amino)-2,3-dihydro-4H-[1,4]oxazino[2,3-f]quinazolin-4-yl)prop-2-en-1-one] the value was at most 0.05 µM; for `C=CC(=O)N1CCOc2c1ccc1ncnc(Nc3ccc(Oc4cccc(Cl)c4)cc3)c21` [Example 6, 1-(10-((4-(3-chlorophenoxy)phenyl)amino)-2,3-dihydro-4H-[1,4]oxazino[2,3-f]quinazolin-4-yl)prop-2-en-1-one], at most 0.05 µM.
Under `C=CC(=O)N1CCOc2c1ccc1ncnc(Nc3ccc(Oc4cccc(F)c4)cc3)c21` [Example 7, 1-(10-((4-(3-fluorophenoxy)phenyl)amino)-2,3-dihydro-4H-[1,4]oxazino[2,3-f]quinazolin-4-yl)prop-2-en-1-one] stands at most 0.05 µM; under `C=CC(=O)N1CCOc2c1ccc1ncnc(Nc3ccc(Oc4ccccc4F)cc3)c21` [Example 8, 1-(10-((4-(2-fluorophenoxy)phenyl)amino)-2,3-dihydro-4H-[1,4]oxazino[2,3-f]quinazolin-4-yl)prop-2-en-1-one], at most 0.05 µM.
Under `C=CC(=O)N1CCOc2c1ccc1ncnc(Nc3ccc(Oc4ccc(F)cc4)cc3)c21` [Example 9, 1-(10-((4-(4-fluorophenoxy)phenyl)amino)-2,3-dihydro-4H-[1,4]oxazino[2,3-f]quinazolin-4-yl)prop-2-en-1-one] stands at most 0.05 µM; under `C=CC(=O)N1CCOc2c1ccc1ncnc(Nc3ccc(Oc4ccc(Cl)cc4)cc3)c21` [Example 10, 1-(10-((4-(4-chlorophenoxy)phenyl)amino)-2,3-dihydro-4H-[1,4]oxazino[2,3-f]quinazolin-4-yl)prop-2-en-1-one], at most 0.05 µM; under `C=CC(=O)N1CCOc2c1ccc1ncnc(Nc3ccc(Oc4ccccc4OC)cc3)c21` [Example 11, 1-(10-((4-(2-methoxyphenoxy)phenyl)amino)-2,3-dihydro-4H-[1,4]oxazino[2,3-f]quinazolin-4-yl)prop-2-en-1-one], at most 0.05 µM.
The molecule `C=CC(=O)N1CCOc2c1ccc1ncnc(Nc3ccc(Oc4ccccn4)cc3)c21` [Example 12, 1-(10-((4-(pyridin-2-yloxy)phenyl)amino)-2,3-dihydro-4H-[1,4]oxazino[2,3-f]quinazolin-4-yl)prop-2-en-1-one] had an IC50 of at most 0.05 µM.
`C=CC(=O)N1CCOc2c1ccc1ncnc(Nc3ccc(Oc4cccnc4)cc3)c21` [Example 13, 1-(10-((4-(pyridin-3-yloxy)phenyl)amino)-2,3-dihydro-4H-[1,4]oxazino[2,3-f]quinazolin-4-yl)prop-2-en-1-one] displayed an IC50 of at most 0.05 µM.
As for `C=CC(=O)N1CCOc2c1ccc1ncnc(Nc3ccc(Oc4cccc(OC)c4)cc3)c21` [Example 14, 1-(10-((4-(3-methoxyphenoxy)phenyl)amino)-2,3-dihydro-4H-[1,4]oxazino[2,3-f]quinazolin-4-yl)prop-2-en-1-one], the IC50 was at most 0.05 µM.
With `C=CC(=O)N1CCOc2c1ccc1ncnc(Nc3ccc(Oc4nccs4)cc3)c21` [Example 15, 1-(10-((4-(thiazol-2-yloxy)phenyl)amino)-2,3-dihydro-4H-[1,4]oxazino[2,3-f]quinazolin-4-yl)prop-2-en-1-one], the IC50 was at most 0.05 µM.
In turn, `C=CC(=O)N1CCOc2c1ccc1ncnc(Nc3ccc(Oc4ccccc4)c(F)c3)c21` [Example 16, 1-(10-((3-fluoro-4-phenoxyphenyl)amino)-2,3-dihydro-4H-[1,4]oxazino[2,3-f]quinazolin-4-yl)prop-2-en-1-one] registered an IC50 of at most 0.05 µM.
For `C=CC(=O)N1CCOc2c1ccc1ncnc(Nc3ccc(Oc4ccccc4)c(Cl)c3)c21` [Example 17, 1-(10-((3-chloro-4-phenoxyphenyl)amino)-2,3-dihydro-4H-[1,4]oxazino[2,3-f]quinazolin-4-yl)prop-2-en-1-one] the value was at most 0.05 µM; for `C=CC(=O)N1CCOc2c1ccc1ncnc(Nc3ccc(OCc4ccc(F)cc4)cc3)c21` [Example 18, 1-(10-((4-((4-fluorobenzyl)oxy)phenyl)amino)-2,3-dihydro-4H-[1,4]oxazino[2,3-f]quinazolin-4-yl)prop-2-en-1-one], at most 0.05 µM; for `C=CC(=O)N1CCOc2c1ccc1ncnc(Nc3ccc(OCc4cccc(F)c4)cc3)c21` [Example 19, 1-(10-((4-((3-fluorobenzyl)oxy)phenyl)amino)-2,3-dihydro-4H-[1,4]oxazino[2,3-f]quinazolin-4-yl)prop-2-en-1-one], at most 0.05 µM.
Under `C=CC(=O)N1CCOc2c1ccc1ncnc(Nc3ccc(OCc4cccc(C(F)(F)F)c4)cc3)c21` [Example 20, 1-(10-((4-((3-trifluoromethylbenzyl)oxy)phenyl)amino)-2,3-dihydro-4H-[1,4]oxazino[2,3-f]quinazolin-4-yl)prop-2-en-1-one] stands at most 0.05 µM; under `C=CC(=O)N1CCOc2c1ccc1ncnc(Nc3ccc(OCc4ccccn4)cc3)c21` [Example 21, 1-(10-((4-(pyridin-2-ylmethoxy)phenyl)amino)-2,3-dihydro-4H-[1,4]oxazino[2,3-f]quinazolin-4-yl)prop-2-en-1-one], at most 0.05 µM; under `C=CC(=O)N1CCOc2c1ccc1ncnc(Nc3ccc(OCc4cccs4)cc3)c21` [Example 22, 1-(10-((4-(thiophen-2-ylmethoxy)phenyl)amino)-2,3-dihydro-4H-[1,4]oxazino[2,3-f]quinazolin-4-yl)prop-2-en-1-one], at most 0.05 µM.
`C=CC(=O)N1CCOc2c1ccc1ncnc(Nc3ccc(OCc4nccs4)cc3)c21` [Example 23, 1-(10-((4-(thiazol-2-ylmethoxy)phenyl)amino)-2,3-dihydro-4H-[1,4]oxazino[2,3-f]quinazolin-4-yl)prop-2-en-1-one] registered an IC50 of at most 0.05 µM.
Consider `C=CC(=O)N1CCOc2c1ccc1ncnc(Nc3ccc(SCc4ccccc4)cc3)c21` [Example 24, 1-(10-((4-(benzylthio)phenyl)amino)-2,3-dihydro-4H-[1,4]oxazino[2,3-f]quinazolin-4-yl)prop-2-en-1-one], for which the IC50 was at most 0.05 µM.
For `C=CC(=O)N1CCOc2c1ccc1ncnc(Nc3ccc(OCc4cccc(F)c4)c(C(F)(F)F)c3)c21` [Example 25, 1-(10-((4-((3-fluorobenzyl)oxy)-3-(trifluoromethyl)phenyl)amino)-2,3-dihydro-4H-[1,4]oxazino[2,3-f]quinazolin-4-yl)prop-2-en-1-one] the value was at most 0.05 µM; for `C=CC(=O)N1CCOc2c1ccc1ncnc(Nc3ccc(OCc4cccc(F)c4)c(OC)c3)c21` [Example 26, 1-(10-((4-((3-fluorobenzyl)oxy)-3-(methoxy)phenyl)amino)-2,3-dihydro-4H-[1,4]oxazino[2,3-f]quinazolin-4-yl)prop-2-en-1-one], at most 0.05 µM.
For `C=CC(=O)N1CCOc2c1ccc1ncnc(Nc3ccc(OCc4cccc(F)c4)c(F)c3)c21` [Example 27, 1-(10-((4-((3-fluorobenzyl)oxy)-3-fluorophenyl)amino)-2,3-dihydro-4H-[1,4]oxazino[2,3-f]quinazolin-4-yl)prop-2-en-1-one] the value was at most 0.05 µM.
